Active and inactive are the calls of the source. The rule behind the calls is not given here.
Biological target: G-protein coupled estrogen receptor 1 (Homo sapiens) (UniProt Q99527)
Experiment: GPR30 binders, concentration-response potency, dose response, cell-based (AID 1224)
Conditions: GPR30-expressing cells, fluorescent ligand binding displacement

EC50	remaining binding, lower = displacement (at 100 µM (top of the series))	SMILES
> 10000 nM (inactive)		CC(=O)Oc1ccc(C2Nc3c(C(=O)O)ccc([N+](=O)[O-])c3C3C=CCC32)cc1 (stereo not drawn)
	inactive	CC(=O)c1ccc2c(c1)C1C=CCC1C(c1cccc([N+](=O)[O-])c1)N2 (stereo not drawn)
62.3 nM		O=C(O)c1ccc([N+](=O)[O-])c2c1NC(c1ccccc1)C1CC=CC21 (stereo not drawn)

From PubChem BioAssay AID1224 (NMMLSC, 2008)
